Assay results taken from patent US20110269811A1, “INHIBITORS OF SEMICARBAZIDE-SENSITIVE AMINE OXIDASE (SSAO) AND VAP-1 MEDIATED ADHESION USEFUL FOR TREATMENT AND PREVENTION OF DISEASES” (priority 2006, published 2011).

Experiments:
[1] = tested on: Non-Peptide Receptors, Peptide Receptors, Ion Channels; assay: Screening for receptors affected by SSAO inhibitor (specific ligand binding); conditions: 10 μM concentration; receptor families listed
Procedure: A screening procedure was employed to determine whether compound I-1-Z affects specific ligand binding to various receptors. Ligand binding to the following receptors was not affected by a 10 μM concentration of compound I-1-Z:
Non-Peptide Receptors: Adenosine, Adrenergic, Benzodiazepine, Cannabinoid, Dopamine, GABA, Glutamate, Histamine, Melatonin, Muscarinic, Prostanoid, Purinergic, Serotonin, Sigma;
Peptide Receptors: Angiotensin II, Bombesin, Bradykinin, Calcitonin-related peptide, Chemokine, Cholecystokinin, Cytokine, Endothein, Galanin, Growth factor, Melanocortin, Neurokinin, Neuropeptide Y, Neurotensin, Opioid, Somatostatin, VIP, Vasopressin;
Ion Channels: Calcium, Potassium, Sodium. […]
For Table 4 below, the specific ligand binding to the receptors is defined as the difference between the total binding and the nonspecific binding determined in the presence of an excess of unlabelled ligand. The results are expressed as a percent inhibition of control specific binding obtained in the presence of Compound I-1-Z. The IC50 values (concentration causing a half-maximal inhibition of control specific binding) and Hill coefficients (nH) were determined by non-linear regression analysis of the competition curves using Hill equation curve fitting. […]

AT1 (h) = molecular target: T1, AT1 (h) (Homo sapiens, UniProt P30556); assay: Receptor binding screen, [^125I][Sar^1,Ile^8]-ATII; conditions: 10 uM Concentration of Compound I-1-Z; read-out: Mean Value, percent inhibition of control specific binding: AT1 (h)
T1 construct: expressed in transfected cells; host or cells: CHO cells
T1 sequence (P30556 whole entry): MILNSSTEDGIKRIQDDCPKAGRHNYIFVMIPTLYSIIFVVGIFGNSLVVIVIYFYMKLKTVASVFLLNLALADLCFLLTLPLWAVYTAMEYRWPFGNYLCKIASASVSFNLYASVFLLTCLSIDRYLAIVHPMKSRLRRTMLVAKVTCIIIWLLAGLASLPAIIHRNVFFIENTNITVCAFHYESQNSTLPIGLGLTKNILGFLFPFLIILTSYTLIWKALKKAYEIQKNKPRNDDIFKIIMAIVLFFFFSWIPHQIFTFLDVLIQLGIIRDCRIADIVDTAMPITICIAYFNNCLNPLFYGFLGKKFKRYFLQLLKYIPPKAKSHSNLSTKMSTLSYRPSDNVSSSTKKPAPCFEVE

AT2 (h) = molecular target: T2, AT2 (h) (Homo sapiens, UniProt P50052); assay: Receptor binding screen, [^125I]CGP 42112A; conditions: 10 uM Concentration of Compound I-1-Z; read-out: Mean Value, percent inhibition of control specific binding: AT2 (h)
T2 construct: expressed in transfected cells; host or cells: Hela cells
T2 sequence (P50052 whole entry): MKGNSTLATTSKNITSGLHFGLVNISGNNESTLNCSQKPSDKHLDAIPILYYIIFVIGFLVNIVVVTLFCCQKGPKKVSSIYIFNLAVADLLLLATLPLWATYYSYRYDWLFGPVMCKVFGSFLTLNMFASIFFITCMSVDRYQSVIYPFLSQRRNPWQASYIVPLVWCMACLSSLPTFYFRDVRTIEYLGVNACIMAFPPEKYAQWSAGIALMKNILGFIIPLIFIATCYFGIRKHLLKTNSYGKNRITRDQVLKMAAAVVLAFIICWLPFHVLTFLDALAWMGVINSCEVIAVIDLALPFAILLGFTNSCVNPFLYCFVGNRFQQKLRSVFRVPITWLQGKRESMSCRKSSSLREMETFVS

B2 (h) = molecular target: T3, B2 (h) (Homo sapiens, UniProt P30411); assay: Receptor binding screen, [^3H]bradykinin; conditions: 10 uM Concentration of Compound I-1-Z; read-out: Mean Value, percent inhibition of control specific binding: B2 (h)
T3 construct: expressed in transfected cells; host or cells: CHO cells
T3 sequence (P30411 whole entry): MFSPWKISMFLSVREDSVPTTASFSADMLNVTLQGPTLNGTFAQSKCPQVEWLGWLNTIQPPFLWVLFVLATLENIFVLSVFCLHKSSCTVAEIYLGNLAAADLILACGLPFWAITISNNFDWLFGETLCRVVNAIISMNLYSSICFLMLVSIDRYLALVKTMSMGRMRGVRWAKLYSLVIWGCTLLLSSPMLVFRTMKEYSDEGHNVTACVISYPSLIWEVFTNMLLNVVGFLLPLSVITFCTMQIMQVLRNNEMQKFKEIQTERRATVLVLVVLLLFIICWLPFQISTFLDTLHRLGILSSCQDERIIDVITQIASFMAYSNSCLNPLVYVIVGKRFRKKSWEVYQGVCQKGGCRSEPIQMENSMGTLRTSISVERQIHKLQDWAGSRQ

D1 (h) = molecular target: T4, D1 (h) (Homo sapiens, UniProt P21728); assay: Receptor binding screen, [^3H]SCH 23390; conditions: 10 uM Concentration of Compound I-1-Z; read-out: Mean Value, percent inhibition of control specific binding: D1 (h)
T4 construct: expressed in transfected cells; host or cells: CHO cells

CXCR2 (h) (IL-8B) = molecular target: T5, CXCR2 (h) (IL-8B) (Homo sapiens, UniProt P25025); assay: Receptor binding screen, [^125I]IL-8; conditions: 10 uM Concentration of Compound I-1-Z; read-out: Mean Value, percent inhibition of control specific binding: CXCR2 (h) (IL-8B)
T5 construct: expressed in transfected cells; host or cells: HEK-293 cells
T5 sequence (P25025 whole entry): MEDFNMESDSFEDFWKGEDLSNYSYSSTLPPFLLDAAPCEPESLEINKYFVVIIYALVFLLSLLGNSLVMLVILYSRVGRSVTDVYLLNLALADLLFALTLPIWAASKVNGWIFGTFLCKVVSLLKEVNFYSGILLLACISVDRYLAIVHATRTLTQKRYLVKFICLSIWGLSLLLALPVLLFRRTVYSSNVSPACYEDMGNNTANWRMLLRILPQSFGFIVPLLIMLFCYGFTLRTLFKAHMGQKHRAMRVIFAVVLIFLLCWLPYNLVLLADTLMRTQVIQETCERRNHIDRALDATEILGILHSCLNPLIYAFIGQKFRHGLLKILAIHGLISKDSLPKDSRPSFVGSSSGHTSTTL

TNF-α (h) = assay: Receptor binding screen, [^125I]TNF-α, U-937 cells; set-up: species or system human; conditions: 10 uM Concentration of Compound I-1-Z
M3 (h) = molecular target: T6, M3 (h) (Homo sapiens, UniProt P20309); assay: Receptor binding screen, [^3H]4-DAMP; conditions: 10 uM Concentration of Compound I-1-Z; read-out: Mean Value, percent inhibition of control specific binding: M3 (h)
T6 construct: expressed in transfected cells; host or cells: CHO cells
T6 sequence (P20309 whole entry): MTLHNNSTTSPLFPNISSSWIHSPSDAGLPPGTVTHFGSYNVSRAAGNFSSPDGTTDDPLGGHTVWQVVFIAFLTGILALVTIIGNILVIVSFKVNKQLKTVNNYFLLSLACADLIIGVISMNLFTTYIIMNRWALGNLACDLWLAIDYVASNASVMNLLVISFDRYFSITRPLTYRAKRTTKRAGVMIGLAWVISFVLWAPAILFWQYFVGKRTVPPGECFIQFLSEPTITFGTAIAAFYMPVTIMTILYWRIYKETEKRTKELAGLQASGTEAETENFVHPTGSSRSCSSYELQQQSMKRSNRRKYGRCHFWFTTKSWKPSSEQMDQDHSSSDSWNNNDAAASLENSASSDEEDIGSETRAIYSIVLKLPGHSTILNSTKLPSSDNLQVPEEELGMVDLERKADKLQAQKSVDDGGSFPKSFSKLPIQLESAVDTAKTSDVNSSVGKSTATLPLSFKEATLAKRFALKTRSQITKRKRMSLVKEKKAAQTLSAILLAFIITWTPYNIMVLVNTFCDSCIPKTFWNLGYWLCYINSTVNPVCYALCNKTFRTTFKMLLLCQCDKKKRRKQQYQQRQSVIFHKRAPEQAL

NK1 (h) = molecular target: T7, NK1 (h) (Homo sapiens, UniProt P25103); assay: Receptor binding screen, [^125I]BH-SP, U-373MG cells; conditions: 10 uM Concentration of Compound I-1-Z; read-out: Mean Value, percent inhibition of control specific binding: NK1 (h)
T7 construct: U-373MG cells; endogenous in cells; host or cells: U-373MG cells
T7 sequence (P25103 whole entry): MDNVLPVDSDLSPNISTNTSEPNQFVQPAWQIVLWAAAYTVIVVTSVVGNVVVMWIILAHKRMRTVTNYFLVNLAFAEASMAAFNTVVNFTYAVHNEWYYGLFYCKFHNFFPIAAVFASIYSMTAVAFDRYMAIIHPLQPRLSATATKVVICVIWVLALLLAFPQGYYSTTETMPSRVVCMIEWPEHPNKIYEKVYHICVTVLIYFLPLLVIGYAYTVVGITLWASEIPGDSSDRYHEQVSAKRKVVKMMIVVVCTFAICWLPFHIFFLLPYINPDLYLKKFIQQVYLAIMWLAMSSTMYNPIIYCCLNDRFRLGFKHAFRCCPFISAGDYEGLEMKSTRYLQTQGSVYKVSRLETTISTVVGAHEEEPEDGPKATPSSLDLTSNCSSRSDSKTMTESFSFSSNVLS

NK3 (h) = molecular target: T8, NK3 (h) (Homo sapiens, UniProt P29371); assay: Receptor binding screen, [^3H]SR 142801; conditions: 10 uM Concentration of Compound I-1-Z; read-out: Mean Value, percent inhibition of control specific binding: NK3 (h)
T8 construct: expressed in transfected cells; host or cells: CHO cells
T8 sequence (P29371 whole entry): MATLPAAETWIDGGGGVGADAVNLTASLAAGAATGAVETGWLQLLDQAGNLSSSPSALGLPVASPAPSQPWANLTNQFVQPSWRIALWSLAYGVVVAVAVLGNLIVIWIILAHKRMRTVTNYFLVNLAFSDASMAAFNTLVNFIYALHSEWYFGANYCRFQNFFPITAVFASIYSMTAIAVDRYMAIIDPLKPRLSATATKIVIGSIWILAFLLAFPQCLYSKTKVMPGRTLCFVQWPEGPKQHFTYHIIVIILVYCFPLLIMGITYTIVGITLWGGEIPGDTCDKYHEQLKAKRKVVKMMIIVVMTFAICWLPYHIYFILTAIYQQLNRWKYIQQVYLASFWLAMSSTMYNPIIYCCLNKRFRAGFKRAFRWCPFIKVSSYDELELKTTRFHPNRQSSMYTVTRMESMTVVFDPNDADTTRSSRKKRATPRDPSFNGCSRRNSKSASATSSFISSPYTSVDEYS

Y2 (h) = molecular target: T9, Y2 (h) (Homo sapiens, UniProt P49146); assay: Receptor binding screen, [^125I]peptide YY, KAN-TS cells; conditions: 10 uM Concentration of Compound I-1-Z; read-out: Mean Value, percent inhibition of control specific binding: Y2 (h)
T9 construct: KAN-TS cells; endogenous in cells; host or cells: KAN-TS cells

NT1 (h) (NTS1) = molecular target: T10, NT1 (h) (NTS1) (Homo sapiens, UniProt P30989); assay: Receptor binding screen, [^125I]Tyr^3-neurotensin; conditions: 10 uM Concentration of Compound I-1-Z; read-out: Mean Value, percent inhibition of control specific binding: NT1 (h) (NTS1)
T10 construct: expressed in transfected cells; host or cells: CHO cells

δ2 (h) (DOP) = molecular target: T11, δ2 (h) (DOP) (Homo sapiens, UniProt P41143); assay: Receptor binding screen, [^3H]DADLE; conditions: 10 uM Concentration of Compound I-1-Z; read-out: Mean Value, percent inhibition of control specific binding: δ2 (h) (DOP)
T11 construct: expressed in transfected cells; host or cells: CHO cells
T11 sequence (P41143 whole entry): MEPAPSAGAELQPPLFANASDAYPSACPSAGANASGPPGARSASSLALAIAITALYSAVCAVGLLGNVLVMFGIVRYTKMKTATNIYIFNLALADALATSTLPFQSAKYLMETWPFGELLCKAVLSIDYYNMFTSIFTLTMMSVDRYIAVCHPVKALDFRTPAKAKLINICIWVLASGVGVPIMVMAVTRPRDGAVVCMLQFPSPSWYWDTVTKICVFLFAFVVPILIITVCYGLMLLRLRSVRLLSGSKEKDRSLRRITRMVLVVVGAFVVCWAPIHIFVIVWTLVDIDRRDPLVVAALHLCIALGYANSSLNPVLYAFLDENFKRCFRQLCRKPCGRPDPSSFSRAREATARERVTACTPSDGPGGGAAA
Procedure: (§1) For Table 4 below, the specific ligand binding to the receptors is defined as the difference between the total binding and the nonspecific binding determined in the presence of an excess of unlabelled ligand. The results are expressed as a percent inhibition of control specific binding obtained in the presence of Compound I-1-Z. The IC50 values (concentration causing a half-maximal inhibition of control specific binding) and Hill coefficients (nH) were determined by non-linear regression analysis of the competition curves using Hill equation curve fitting. The inhibition constants (Ki) were calculated from the Cheng Prusoff equation (Ki=IC50/(1+(L/KD)), where L=concentration of radioligand in the assay, and KD=affinity of the radioligand for the receptor). In each experiment, the respective reference compound was tested concurrently with Compound I-1-Z in order to assess the assay suitability.

5-HT2A (h) = molecular target: T12, 5-HT2A (h) (Homo sapiens, UniProt P28223); assay: Receptor binding screen, [^3H]ketanserin; conditions: 10 uM Concentration of Compound I-1-Z; read-out: Mean Value, percent inhibition of control specific binding: 5-HT2A (h)
T12 construct: expressed in transfected cells; host or cells: HEK-293 cells
T12 sequence (P28223 whole entry): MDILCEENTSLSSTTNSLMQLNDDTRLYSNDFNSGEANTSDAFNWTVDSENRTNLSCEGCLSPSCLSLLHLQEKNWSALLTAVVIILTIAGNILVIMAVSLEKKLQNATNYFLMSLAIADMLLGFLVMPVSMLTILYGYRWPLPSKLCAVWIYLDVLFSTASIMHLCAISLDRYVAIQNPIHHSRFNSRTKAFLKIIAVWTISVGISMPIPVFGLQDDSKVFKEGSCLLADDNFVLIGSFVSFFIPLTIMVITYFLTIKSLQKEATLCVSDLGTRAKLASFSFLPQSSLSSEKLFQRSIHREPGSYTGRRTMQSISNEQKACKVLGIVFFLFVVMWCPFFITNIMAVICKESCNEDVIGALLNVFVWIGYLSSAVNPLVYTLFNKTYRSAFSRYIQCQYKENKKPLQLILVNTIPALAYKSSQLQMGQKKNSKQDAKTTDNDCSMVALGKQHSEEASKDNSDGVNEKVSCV

5-HT3 (h) = molecular target: T13, 5-HT3 (h) (Homo sapiens, UniProt P46098); assay: Receptor binding screen, [^3H]BRL 43694; conditions: 10 uM Concentration of Compound I-1-Z; read-out: Mean Value, percent inhibition of control specific binding: 5-HT3 (h)
T13 construct: expressed in transfected cells; host or cells: CHO cells

σ (non-selective) = assay: Receptor binding screen, [^3H]DTG; set-up: species or system rat; conditions: 10 uM Concentration of Compound I-1-Z
Procedure: as §1

VIP1 (h) (VPAC1) = molecular target: T14, VIP1 (h) (VPAC1) (Homo sapiens, UniProt P32241); assay: Receptor binding screen, [^125I]VIP; conditions: 10 uM Concentration of Compound I-1-Z; read-out: Mean Value, percent inhibition of control specific binding: VIP1 (h) (VPAC1)
T14 construct: expressed in transfected cells; host or cells: CHO cells
T14 sequence (P32241 31-457): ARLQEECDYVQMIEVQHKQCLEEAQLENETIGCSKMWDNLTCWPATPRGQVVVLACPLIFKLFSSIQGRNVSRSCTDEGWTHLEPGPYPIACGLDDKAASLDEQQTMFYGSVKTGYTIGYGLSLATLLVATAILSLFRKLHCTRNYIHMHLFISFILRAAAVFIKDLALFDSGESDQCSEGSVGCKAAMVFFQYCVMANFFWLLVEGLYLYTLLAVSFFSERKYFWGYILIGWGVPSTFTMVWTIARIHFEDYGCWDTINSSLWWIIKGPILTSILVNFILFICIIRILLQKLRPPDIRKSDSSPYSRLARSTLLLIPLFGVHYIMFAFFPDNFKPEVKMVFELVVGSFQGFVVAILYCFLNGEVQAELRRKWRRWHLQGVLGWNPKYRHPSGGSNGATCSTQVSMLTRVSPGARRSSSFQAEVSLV

Cl^− channel = assay: Receptor binding screen, [^35S]TBPS; set-up: species or system rat; conditions: 10 uM Concentration of Compound I-1-Z
DA transporter (h) = molecular target: T15, DA transporter (h) (Homo sapiens, UniProt Q01959); assay: Receptor binding screen, [^3H]BTCP; conditions: 10 uM Concentration of Compound I-1-Z; read-out: Mean Value, percent inhibition of control specific binding: DA transporter (h)
T15 construct: expressed in transfected cells; host or cells: CHO cells
T15 sequence (Q01959 whole entry): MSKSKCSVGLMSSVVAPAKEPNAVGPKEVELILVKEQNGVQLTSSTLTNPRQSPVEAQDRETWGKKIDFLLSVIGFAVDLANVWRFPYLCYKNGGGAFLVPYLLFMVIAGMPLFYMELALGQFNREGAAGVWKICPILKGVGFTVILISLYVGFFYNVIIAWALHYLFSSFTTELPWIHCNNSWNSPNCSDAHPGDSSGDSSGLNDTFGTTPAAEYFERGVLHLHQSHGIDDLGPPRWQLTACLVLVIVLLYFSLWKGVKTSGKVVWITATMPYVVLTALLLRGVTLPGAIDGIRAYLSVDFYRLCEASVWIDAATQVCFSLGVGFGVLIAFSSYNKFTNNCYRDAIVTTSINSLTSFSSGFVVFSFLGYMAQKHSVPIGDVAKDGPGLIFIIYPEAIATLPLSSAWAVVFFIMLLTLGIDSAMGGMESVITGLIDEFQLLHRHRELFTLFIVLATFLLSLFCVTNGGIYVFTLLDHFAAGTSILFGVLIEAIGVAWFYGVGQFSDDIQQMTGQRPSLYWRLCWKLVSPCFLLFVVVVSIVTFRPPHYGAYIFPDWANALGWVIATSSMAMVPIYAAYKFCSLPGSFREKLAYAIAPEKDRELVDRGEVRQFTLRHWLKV

SMILES: COc1ccc(C/C(=C/F)CN)cc1.Cl [Compound I-1-Z, (Z)-3-Fluoro-2-(4-methoxybenzyl)-allylamine hydrochloride]
- Ligand binding to the listed receptors [1]: not affected
- inhibition at 10 µM (AT1 (h)): 10%
- inhibition at 10 µM (AT2 (h)): -19%
- inhibition at 10 µM (B2 (h)): 1%
- inhibition at 10 µM (D1 (h)): -2%
- inhibition at 10 µM (CXCR2 (h) (IL-8B)): -8%
- Mean Value, percent inhibition of control specific binding: TNF-α (h) (TNF-α (h)): −6%
- inhibition at 10 µM (M3 (h)): 16%
- inhibition at 10 µM (NK1 (h)): -6%
- inhibition at 10 µM (NK3 (h)): 1%
- inhibition at 10 µM (Y2 (h)): 11%
- inhibition at 10 µM (NT1 (h) (NTS1)): -1%
- inhibition at 10 µM (δ2 (h) (DOP)): 0%
- inhibition at 10 µM (5-HT2A (h)): -4%
- inhibition at 10 µM (5-HT3 (h)): 4%
- Mean Value, percent inhibition of control specific binding: σ (non-selective) (σ (non-selective)): 24%
- inhibition at 10 µM (VIP1 (h) (VPAC1)): -13%
- Mean Value, percent inhibition of control specific binding: Cl^− channel (Cl^− channel): −6%
- inhibition at 10 µM (DA transporter (h)): 38%
